This is an account of results in article PMC5546605 (PLoS ONE, 2017).

For assay [1], the target named is T1, cellular prion protein (PrP^C) (Mus musculus, UniProt P04925).
T1 construct: gene Prnp
As to the kind of experiment: biochemical. It is filed as binding.

Assay [2] deals with T2, cellular prion protein (PrP^C) (Homo sapiens, UniProt P04156).
T2 construct: gene PRNP
The assay is described as follows: biochemical. In kind it is binding.

T1 sequence (P04925 23-230 limits assumed): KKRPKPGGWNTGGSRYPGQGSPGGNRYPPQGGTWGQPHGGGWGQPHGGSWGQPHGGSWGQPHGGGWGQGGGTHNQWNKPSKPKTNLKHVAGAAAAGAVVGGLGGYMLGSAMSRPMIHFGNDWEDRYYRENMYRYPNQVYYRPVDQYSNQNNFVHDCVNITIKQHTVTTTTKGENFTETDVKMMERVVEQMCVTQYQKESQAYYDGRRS

For the compound `CN(C)CCCN1c2ccccc2Sc2ccc(Cl)cc21` [CPZ, chlorpromazine], the dissociation constant Kd in assay [1] is > 100 µM; in assay [2], 421 µM.
